This is an account of results in patent US8138191B2, “Inhibitor compounds and cancer treatment methods” (Critical Outcome Technologies Inc., priority 2007, dated 2012).

Each structure is given as a SMILES string. Read-outs that look alike come from different tables or passages of the source.

One data set deals with SHP77. Description: in vitro IC50 against cancer cell lines, SHP77. In kind it is cell-based. The conditions noted are these: Homo sapiens, 72 h; SHP77, SCLC, 3 days. The protocol:
(§1) Briefly, cells were plated in plastic tissue culture plates and grown under standard conditions for each cell line, in carbon dioxide/oxygen atmosphere in plastic tissue culture plates, in the presence of COTI-2 or COTI-219 compounds at 35° C. for 3 days. Control cultures were treated with vehicle minus compound. Cells were counted after 3 days in culture and at a cell density of no more than 80%. The following cell lines, obtained from the National Cancer Institute, were tested: human SCLC cell lines DMS153, DMS114, SHP77; human NSCLC cell lines H226, A460, A560; human breast cancer cell lines T47D, MCF7; human colon cancer cell line HT29; and, human Leukemia cell lines K562, HL60.

The test system of data set [1] is DMS153. Put plainly: in vitro IC50 against cancer cell lines, DMS153. The class given is cell-based. The note with it: Homo sapiens, DMS-153, 72 h; DMS153, SCLC, 3 days. The method, then: as §1
The next data set concerns DMS114. Put plainly: in vitro IC50 against cancer cell lines, DMS114. The class given is cell-based. The note with it: Homo sapiens, DMS-114, 72 h; DMS114, SCLC, 3 days. The protocol:
as §1

A further data set deals with T47D. Description: in vitro IC50 against cancer cell lines, T47D. The class given is cell-based. The conditions noted are these: Homo sapiens, 72 h, Breast Cancer, 3 days. The method, then:
as §1

The test system of the next data set is HT29. Description: in vitro IC50 against cancer cell lines, HT29. In kind it is cell-based. The conditions noted are these: Homo sapiens, HT-29, 72 h; HT29, Colorectal Cancer, 3 days. The protocol: as §1
For data set [2], the system named is SHP-77 human SCLC cell line tumor xenografts. Description: Nude mouse model of human SCLC, SHP-77 xenografts. The conditions noted are these: IP on alternate days from Day 3, 31 days. The class given is in vivo. The protocol:
The nude mouse model of human SCLC was used to evaluate the in vivo efficacy of compounds of the present invention in comparison with several known chemotherapeutic agents. Nude mice were obtained form the National Cancer Institute and the SHP-77 human SCLC cell line was chosen for metastatic tumor xenografts. The control group consisted of 10 animals, each of which were administered bilateral thigh injections of a prescribed volume of tumor cells. There were 6 treatment groups, each containing 5 animals: COTI-2, COTI-4, COTI-219, Taxotere® (docetaxel), Cisplatin® (cis-diamminedichloroplatinum) and Tarceva® (erlotinib) The therapeutic agent was administered by intraperitoneal (IP) injection on alternate days beginning on Day 3 post tumor cell injection. Each animal in a treatment group was administered bilateral thigh injections with the same prescribed volume of tumor cells as the control animals. Treatment continued for 31 days, following which the animals were euthanized and tissues were collected for subsequent analysis.
(Xenograft models place foreign cells or tissue in a host animal.)

The test system of data set [3] is DMS153. Description: Resistance testing over 5 generations, DMS153. In kind it is cell-based, human. The note with it: DMS153, 5 generations. The protocol: In order to evaluate the induction of resistance in vitro, compounds according to the invention were tested in head to head comparisons against conventional therapeutic agents Cisplatin® and Taxotere®. The compound designated COTI-4 (which is the subject of Applicant's co-pending U.S. provisional patent application entitled “Composition and Method for Treatment” filed Dec. 26, 2007) was also tested. The structure for COTI-4 is:
IC50 values were obtained using methods known to persons skilled in the art with two different human SCLC cell lines (DMS153 and SHP77) obtained from the National Cancer Institute. […] The procedure was repeated for a total of 5 generations. Emerging resistance was identified by increasing IC50 values in successive generations.

The subject of the next data set is Standard lab mice. Put plainly: Escalating dose acute toxicity study in mice. The note with it: 4, 8, 16 mg/kg alternate day IP, 28 days. The text has this: Mice were given alternate day IP injections for 28 days. […] Blood and tissue samples were harvested for histopathology.
The next data set concerns H1975. Description: CellTiter-Blue growth inhibition, single agents and combinations, H1975. The conditions noted are these: Homo sapiens, read-out: Mean IC50, single agent. The class given is cell-based. The method, then:
The stock concentration was further diluted to 1 mM and added to a drug plate. […] Following dilution, 2 μl of test agent was transferred to the corresponding wells of a cell-containing 96-well plate with 198 μl of growth media. Tarceva® (erlotinib) was supplied by LC Labs (Woburn, Mass.).
Viable cell numbers were quantified by the CellTiter-Blue® cell viability assay, which measures the conversion of the indicator dye (resazurin) to resorufin, an indicator of cell viability. Experiments were repeated at least twice with the same concentrations to determine growth inhibitory activity.
(§2) The CI, a numerical value calculated as described in equation A, also provides a quantitative measure of the extent of drug interaction. A CI of less than, equal to, and more than 1 indicates synergy, additivity, and antagonism, respectively. CI=(CAx/ICx,A)+(CB,x/ICx,B) Equation A: Where CA,x and CB,x, are the concentrations of drug A and drug B used in combination to achieve x % drug effect. ICx,A and ICx,B are the concentrations for single agents to achieve the same effect.
On the technique in general: Resazurin is reduced to fluorescent resorufin, in cell work by metabolically active cells.

In the next data set the test system is SW620. Put plainly: Tumor cell proliferation, single agents and combinations, SW620. In kind it is cell-based, human. The conditions noted are these: Homo sapiens. The protocol: The 3 cell lines were treated as follows:
Day 1: Cells were plated in 96-well flat bottom plates (VWR, Mississauga, ON, Canada) and allowed to adhere overnight.
All treated and control cells were, therefore, exposed to a 1% DMSO concentration plus the desired concentration of COTI-2.
as §2

The subject of another data set is SNB-19. Put plainly: IC50 human glioma/astrocytoma cell lines (alamar Blue), SNB-19. The conditions noted are these: Homo sapiens, SNB-19.
The test system of a further data set is SF-268. Description: IC50 human glioma/astrocytoma cell lines (alamar Blue), SF-268.
The test system of the next data set is SF-295. Description: IC50 human glioma/astrocytoma cell lines (alamar Blue), SF-295.
For another data set, the system named is H226. Description: in vitro IC50 against cancer cell lines, H226. The class given is cell-based. The note with it: Homo sapiens, NCI-H226, 72 h; H226, NSCLC, 3 days. The method, then: as §1

Description for SF-268: (§3) Cell lines were obtained from the Human Tissue Culture Collection (ATCC), grown and maintained under ATCC-specified conditions, and tested to ensure viability and lack of contaminating mycoplasma and common viruses. […] A viability stain (alamar Blue) was added to cells after 4-7 days of drug exposure (approximately 4 doublings of control cells; maximum cell density in wells approximately 80%), and assayed for total cellular metabolic activity (a function of population density of live cells) by absorbance.
Description for SF-295: as §3
Description for SNB-19: as §3

Broadly, the IC50 is the midpoint of a concentration-inhibition curve. As to `CN1CCN(C(=S)NN=C2c3ncccc3-c3cccnc32)CC1` [COTI-219], the IC50 in the data set with SHP77 is 787 nM; with DMS153 [1], 233 nM; with DMS114, 267 nM; in the data set with T47D it was 367 nM; in the data set on HT29, 403 nM; with H1975 (NCI-H1975, H1975, NSCLC, EGFR - MUT, 72 h) it was 100 nM. The IC50 in the data set with SW620 (SW-620, SW620, Colon, KRAS - MUT, read-out: Mean IC50, single agent) was 7.4 nM; with SNB-19, 1990 nM; in the data set on SF-268, 1170 nM; in the data set on SF-295 it was 2390 nM. In addition, in data set [2], the “average number of tumors per injection site” value is recorded as 0.38. The mean tumor volume in [2] is on record as 53+/−28 mm^3. For the same molecule, the “emerging resistance: ratio of IC50 to IC50 of parental generation” value with DMS153 [3] is listed as “little to no emerging resistance”. Besides, the “acute toxicity / adverse effects” value with Standard lab mice is “No evidence of acute toxicity”. Besides, the weight loss entry in the data set with Standard lab mice is “None of the drugs produced any weight loss”.

With `S=C(N/N=C1/CCCc2cccnc21)N1CCN(c2ccccn2)CC1` [COTI-2], the IC50 in the data set with SHP77 stood at 156 nM; in the data set with DMS153 [1], 73 nM; in the data set on DMS114, 51 nM; in the data set on H226, 15000 nM; in the data set with T47D it was 221 nM; in the data set with HT29 it was 121 nM. The IC50 was 10 nM with H1975 (NCI-H1975, 72 h); 165 nM in the data set on SW620 (SW-620, read-out: Mean IC50, single agent); 8 nM with SNB-19; 66 nM with SF-268; 184 nM with SF-295. Besides, the “average number of tumors per injection site” value in data set [2] turned out to be 0.28. The same molecule gave a mean tumor volume in [2] of 9.9 mm^3. In the data set on DMS153 [3], the “emerging resistance: ratio of IC50 to IC50 of parental generation” value was “less than 1”. Besides, the “acute toxicity / adverse effects” value in the data set with Standard lab mice is on record as “No evidence of acute toxicity”. Moreover, the weight loss entry with Standard lab mice is listed as “None of the drugs produced any weight loss”.
